Data set [1] has as its target T1, IP-3 receptor (Rattus norvegicus, UniProt P29994).
T1 construct: determined using rat cerebellum membrane preparations; from tissue; host or cells: rat cerebellum (microsomal membrane preparation)
Kind of data set: IP-3 receptor antagonistic effect: inhibition of IP3 binding to its receptor in rat cerebellum membrane preparations. Here is the method: Glycosides of the present invention, depending on their chemical structure, inhibit the binding of inositol-1,4,5-trisphosphate (IP3) to its receptor in microsomal membrane preparations. As IP3 is a messenger molecule playing distinguished role in the activation of different cells, interfering with this function can explain the anti-asthmatic effect of these polysulfated glycosides.
The IP3 antagonist effect of the polysulfated glycosides were determined using rat cerebellum membrane preparations according to Worley et al. (JBC 262, 12132, 1987).

Where [2] appears, read: read-out: IC 50 (μg/ml) Average ± SEM (n) (converted).

Structures can show the parent of a compound that is named as a salt. Where two headings read alike, the source gives them in different places.

T1 sequence (P29994 whole entry): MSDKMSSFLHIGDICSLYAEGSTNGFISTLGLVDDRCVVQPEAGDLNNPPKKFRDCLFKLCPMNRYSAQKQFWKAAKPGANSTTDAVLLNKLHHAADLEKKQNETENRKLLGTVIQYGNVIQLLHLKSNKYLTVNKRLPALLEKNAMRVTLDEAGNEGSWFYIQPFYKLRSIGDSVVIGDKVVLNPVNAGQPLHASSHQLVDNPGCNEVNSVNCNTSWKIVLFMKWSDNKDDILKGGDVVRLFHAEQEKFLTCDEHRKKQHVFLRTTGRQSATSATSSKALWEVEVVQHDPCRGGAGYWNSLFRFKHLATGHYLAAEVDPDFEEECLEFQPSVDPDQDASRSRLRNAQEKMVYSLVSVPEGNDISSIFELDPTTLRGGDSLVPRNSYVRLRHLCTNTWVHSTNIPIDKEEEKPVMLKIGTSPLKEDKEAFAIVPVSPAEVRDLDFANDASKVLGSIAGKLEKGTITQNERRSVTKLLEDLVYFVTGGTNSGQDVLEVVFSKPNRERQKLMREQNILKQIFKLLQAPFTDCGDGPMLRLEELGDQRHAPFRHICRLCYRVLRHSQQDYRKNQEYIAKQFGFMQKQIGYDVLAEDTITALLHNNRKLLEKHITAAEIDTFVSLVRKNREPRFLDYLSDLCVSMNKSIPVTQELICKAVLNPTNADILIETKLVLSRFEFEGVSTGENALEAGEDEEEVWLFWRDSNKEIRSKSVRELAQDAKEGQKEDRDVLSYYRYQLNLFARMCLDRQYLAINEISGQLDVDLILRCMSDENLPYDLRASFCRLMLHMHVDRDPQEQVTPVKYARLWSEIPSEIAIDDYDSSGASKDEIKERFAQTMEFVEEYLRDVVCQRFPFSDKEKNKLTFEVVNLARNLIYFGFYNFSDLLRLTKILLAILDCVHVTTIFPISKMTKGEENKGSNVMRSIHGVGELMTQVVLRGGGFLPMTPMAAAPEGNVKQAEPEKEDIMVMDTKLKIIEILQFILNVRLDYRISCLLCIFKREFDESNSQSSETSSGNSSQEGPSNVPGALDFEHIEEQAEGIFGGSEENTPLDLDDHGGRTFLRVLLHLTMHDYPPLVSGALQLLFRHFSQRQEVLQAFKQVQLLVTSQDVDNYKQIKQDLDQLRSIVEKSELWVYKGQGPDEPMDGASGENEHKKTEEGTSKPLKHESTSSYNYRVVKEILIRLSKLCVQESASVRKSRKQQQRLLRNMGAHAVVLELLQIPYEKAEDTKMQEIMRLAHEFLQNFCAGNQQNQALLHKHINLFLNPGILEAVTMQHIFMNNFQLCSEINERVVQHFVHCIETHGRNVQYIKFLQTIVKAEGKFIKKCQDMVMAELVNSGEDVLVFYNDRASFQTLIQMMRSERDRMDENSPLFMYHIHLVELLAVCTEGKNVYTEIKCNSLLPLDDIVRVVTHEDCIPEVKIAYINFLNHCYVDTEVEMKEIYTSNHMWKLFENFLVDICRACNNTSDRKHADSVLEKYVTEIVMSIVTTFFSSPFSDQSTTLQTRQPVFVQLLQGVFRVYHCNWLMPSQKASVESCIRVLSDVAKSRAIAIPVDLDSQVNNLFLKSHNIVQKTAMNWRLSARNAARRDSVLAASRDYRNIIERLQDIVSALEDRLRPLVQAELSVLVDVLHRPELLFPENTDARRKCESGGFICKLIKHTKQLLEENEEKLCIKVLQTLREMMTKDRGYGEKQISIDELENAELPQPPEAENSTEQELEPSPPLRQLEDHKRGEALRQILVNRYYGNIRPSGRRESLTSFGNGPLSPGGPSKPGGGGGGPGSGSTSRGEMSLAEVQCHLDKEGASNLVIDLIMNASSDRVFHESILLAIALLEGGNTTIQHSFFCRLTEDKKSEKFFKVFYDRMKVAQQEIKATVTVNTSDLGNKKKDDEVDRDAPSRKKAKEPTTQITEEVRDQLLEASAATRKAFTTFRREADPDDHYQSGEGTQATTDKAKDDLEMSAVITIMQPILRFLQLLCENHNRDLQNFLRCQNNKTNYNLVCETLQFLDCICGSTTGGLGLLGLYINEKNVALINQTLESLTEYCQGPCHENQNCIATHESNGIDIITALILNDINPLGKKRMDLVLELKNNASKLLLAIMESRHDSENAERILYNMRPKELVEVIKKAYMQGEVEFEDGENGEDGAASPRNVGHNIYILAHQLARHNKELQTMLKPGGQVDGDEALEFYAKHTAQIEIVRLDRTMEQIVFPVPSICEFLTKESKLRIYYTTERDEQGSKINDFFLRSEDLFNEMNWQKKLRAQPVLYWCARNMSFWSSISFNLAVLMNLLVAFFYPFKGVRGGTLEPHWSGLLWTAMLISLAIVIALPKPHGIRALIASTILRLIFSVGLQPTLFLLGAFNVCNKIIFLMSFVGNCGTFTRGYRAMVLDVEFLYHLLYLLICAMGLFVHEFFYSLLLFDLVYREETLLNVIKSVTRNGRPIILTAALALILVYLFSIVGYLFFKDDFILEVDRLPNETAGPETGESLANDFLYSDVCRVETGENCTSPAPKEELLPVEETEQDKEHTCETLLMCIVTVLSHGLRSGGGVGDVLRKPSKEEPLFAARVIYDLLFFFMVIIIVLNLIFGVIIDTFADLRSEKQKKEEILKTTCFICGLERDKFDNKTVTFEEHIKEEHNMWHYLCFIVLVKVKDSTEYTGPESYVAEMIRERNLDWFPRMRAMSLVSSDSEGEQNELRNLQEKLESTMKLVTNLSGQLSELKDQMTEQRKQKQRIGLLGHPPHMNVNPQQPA

As usually defined, the melting point is the temperature of the solid-liquid transition. Regarding `O=S(=O)(O)OC[C@H](OS(=O)(=O)O)[C@@H](O[C@@H]1O[C@H](COS(=O)(=O)O)[C@@H](OS(=O)(=O)O)[C@H](OS(=O)(=O)O)[C@H]1OS(=O)(=O)O)[C@H](OS(=O)(=O)O)[C@@H](COS(=O)(=O)O)OS(=O)(=O)O` (as salt: potassium) [Example 4, 1,2,4,5,6-penta-O-sulfato-3-O-(2,3,4,6-tetra-β-sulfato-β-D-glucopyranosyl)-D-glucitol nona potassium salt], the melting point was above 220 °C.

Regarding `O=S(=O)(O)OCC(OS(=O)(=O)O)C(OC1OC(COS(=O)(=O)O)C(OS(=O)(=O)O)C(OS(=O)(=O)O)C1OS(=O)(=O)O)C(OS(=O)(=O)O)C(COS(=O)(=O)O)OS(=O)(=O)O` (as salt: potassium) [Example 6, 1,2,3,5,6-penta-O-sulfato-4-O-(2,3,4,6-tetra-β-sulfato-β-D-glucopyranosyl)-D-glucitol nona potassium salt], the melting point is above 220 °C.

Turning to `O=S(=O)(O)OC[C@H](OS(=O)(=O)O)[C@@H](OS(=O)(=O)O)[C@H](O[C@H]1O[C@H](COS(=O)(=O)O)[C@@H](OS(=O)(=O)O)[C@H](OS(=O)(=O)O)[C@H]1OS(=O)(=O)O)[C@@H](COS(=O)(=O)O)OS(=O)(=O)O` [Example 5, 1,2,3,5,6-penta-O-sulfato-4-O-(2,3,4,6-tetra-O-sulfato-α-D-glucopyranosyl)-D-glucitol nona potassium salt], the results for the IC50 in data set [1] (read-out: Average IC50) and in data set [1] (setting [2]) were 0.263 µM and 0.347 µM, respectively.

Consider `O=S(=O)(O)OCC(OS(=O)(=O)O)C(OC1OC(COS(=O)(=O)O)C(OS(=O)(=O)O)C(OS(=O)(=O)O)C1OS(=O)(=O)O)C(OS(=O)(=O)O)C(COS(=O)(=O)O)OS(=O)(=O)O` [Example 6, 1,2,3,5,6-penta-O-sulfato-4-O-(2,3,4,6-tetra-β-sulfato-β-D-glucopyranosyl)-D-glucitol nona potassium salt], for which the results for the IC50 in data set [1] (read-out: Average IC50) and in data set [1] (setting [2]) were 0.256 µM and 0.338 µM, respectively.

Consider `O=S(=O)(O)OC[C@@H](OS(=O)(=O)O)[C@@H](OS(=O)(=O)O)[C@H](OS(=O)(=O)O)[C@@H](CO[C@H]1OC[C@@H](OS(=O)(=O)O)[C@@H](OS(=O)(=O)O)[C@@H]1OS(=O)(=O)O)OS(=O)(=O)O` [Example 16, 2,3,4,5,6-penta-O-sulfato-1-O-(2,3,4-tri-O-sulfato-α-D-arabinopyranosyl)-D-mannitol octa potassium salt], for which the figures for the IC50 in data set [1] (read-out: Average IC50) and in data set [1] (setting [2]) were 0.702 µM and 2.02 µM, respectively.

Turning to `O=S(=O)(O)OC[C@H](OS(=O)(=O)O)[C@@H](OS(=O)(=O)O)[C@H](O[C@@H]1O[C@H](COS(=O)(=O)O)[C@H](OS(=O)(=O)O)[C@H](OS(=O)(=O)O)[C@H]1OS(=O)(=O)O)[C@@H](COS(=O)(=O)O)OS(=O)(=O)O` [Example 7, 1,2,3,5,6-penta-O-sulfato-4-O-(2,3,4,6-tetra-O-sulfato-β-D-galactopyranosyl)-D-glucitol nona potassium salt], the IC50 in data set [1] (read-out: Average IC50) is 0.256 µM; in data set [1] (setting [2]), 0.338 µM.

`O=S(=O)(O)OC[C@H]1O[C@@H](OC[C@H](OS(=O)(=O)O)[C@@H](OS(=O)(=O)O)[C@H](OS(=O)(=O)O)[C@@H](COS(=O)(=O)O)OS(=O)(=O)O)[C@H](OS(=O)(=O)O)[C@@H](OS(=O)(=O)O)[C@@H]1OS(=O)(=O)O` [Example 3, 2,3,4,5,6-penta-O-sulfato-1-O-(2,3,4,6-tetra-O-sulfato-β-D-glucopyranosyl)-D-glucitol nona potassium salt]: the IC50 in data set [1] (read-out: Average IC50) was 0.405 µM; in data set [1] (setting [2]), 0.535 µM.

On to `O=S(=O)(O)OC[C@H]1O[C@@H](OC[C@H](OS(=O)(=O)O)[C@@H](O[C@@H]2O[C@H](COS(=O)(=O)O)[C@@H](OS(=O)(=O)O)[C@H](OS(=O)(=O)O)[C@H]2OS(=O)(=O)O)[C@H](OS(=O)(=O)O)[C@@H](COS(=O)(=O)O)OS(=O)(=O)O)[C@H](OS(=O)(=O)O)[C@@H](OS(=O)(=O)O)[C@@H]1OS(=O)(=O)O` [Example 8, 2,4,5,6-tetra-O-sulfato-1,3-bis-O-(2,3,4,6-tetra-O-sulfato-β-D-glucopyranosyl)-D-glucitol dodeca potassium salt], for which the IC50 in data set [1] (read-out: Average IC50) is 0.8 µM; in data set [1] (setting [2]), 1.05 µM.

As to `CO[C@@H]([C@H](OC)[C@@H](COS(=O)(=O)O)OS(=O)(=O)O)[C@@H](CO[C@@H]1O[C@H](CO[C@@H]2O[C@H](COS(=O)(=O)O)[C@@H](OS(=O)(=O)O)[C@H](OS(=O)(=O)O)[C@H]2OS(=O)(=O)O)[C@@H](OS(=O)(=O)O)[C@H](OS(=O)(=O)O)[C@H]1OS(=O)(=O)O)OS(=O)(=O)O` [Example 14, 3,4-di-O-methyl-2,5,6-tri-O-sulfato-1-O-(2,3,4,2′,3′,4′,6′-hepta-O-sulfato-β-gentiobiopyranosyl)-D-mannitol deca potassium salt], the results for the IC50 in data set [1] (read-out: Average IC50) and in data set [1] (setting [2]) were 6.1 µM and 7.83 µM, respectively.

`O=S(=O)(O)OCC1OC(OCC2OC(OCC(OS(=O)(=O)O)C(OS(=O)(=O)O)C(OS(=O)(=O)O)C(COC3OC(COC4OC(COS(=O)(=O)O)C(OS(=O)(=O)O)C(OS(=O)(=O)O)C4OS(=O)(=O)O)C(OS(=O)(=O)O)C(OS(=O)(=O)O)C3OS(=O)(=O)O)OS(=O)(=O)O)C(OS(=O)(=O)O)C(OS(=O)(=O)O)C2OS(=O)(=O)O)C(OS(=O)(=O)O)C(OS(=O)(=O)O)C1OS(=O)(=O)O` [Example 10, 2,3,4,5-tetra-O-sulfato-1,6-bis-O-(2,3,4,2′,3′,4′,6′-hepta-O-sulfato-β-gentiobiopyranosyl)-D-mannitol octadeca potassium salt]: the IC50 was 0.284 µM in data set [1] (read-out: Average IC50) and 0.383 µM in data set [1] (setting [2]).

As for `O=S(=O)(O)OC[C@H](OS(=O)(=O)O)[C@@H](OS(=O)(=O)O)[C@H](O[C@@H]1O[C@H](COS(=O)(=O)O)[C@H](OS(=O)(=O)O)[C@H](OS(=O)(=O)O)[C@H]1OS(=O)(=O)O)[C@@H](COS(=O)(=O)O)OS(=O)(=O)O` (as salt: potassium) [Example 7, 1,2,3,5,6-penta-O-sulfato-4-O-(2,3,4,6-tetra-O-sulfato-β-D-galactopyranosyl)-D-glucitol nona potassium salt], the melting point was above 220 °C.

With `O=S(=O)(O)OC[C@H]1O[C@@H](OC[C@@H](OS(=O)(=O)O)[C@@H](OS(=O)(=O)O)[C@H](OS(=O)(=O)O)[C@@H](CO[C@@H]2O[C@H](COS(=O)(=O)O)[C@@H](OS(=O)(=O)O)[C@H](OS(=O)(=O)O)[C@H]2OS(=O)(=O)O)OS(=O)(=O)O)[C@H](OS(=O)(=O)O)[C@@H](OS(=O)(=O)O)[C@@H]1OS(=O)(=O)O` [Example 9, 2,3,4,5-tetra-O-sulfato-1,6-bis-O-(2,3,4,6-tetra-O-sulfato-β-D-glucopyranosyl)-D-mannitol dodeca potassium salt], the IC50 is 0.634 µM in data set [1] (read-out: Average IC50) and 0.832 µM in data set [1] (setting [2]).

On to `O=S(=O)(O)OC[C@H](OS(=O)(=O)O)[C@@H](OS(=O)(=O)O)[C@H](OS(=O)(=O)O)[C@@H](CO[C@@H]1O[C@H](COS(=O)(=O)O)[C@@H](OS(=O)(=O)O)[C@H](OS(=O)(=O)O)[C@H]1OS(=O)(=O)O)OS(=O)(=O)O` [Example 2, 1,2,3,4,5-penta-O-sulfato-6-O-(2,3,4,6-tetra-O-sulfato-β-D-glucopyranosyl)-D-glucitol nona potassium salt], for which the IC50 in data set [1] (read-out: Average IC50) was 1.41 µM; in data set [1] (setting [2]) it was 1.87 µM.

As to `O=S(=O)(O)OC[C@H]1O[C@@H](OC[C@@H](OS(=O)(=O)O)[C@@H](OS(=O)(=O)O)[C@H](OS(=O)(=O)O)[C@@H](COS(=O)(=O)O)OS(=O)(=O)O)[C@H](OS(=O)(=O)O)[C@@H](OS(=O)(=O)O)[C@@H]1OS(=O)(=O)O` [Example 1, 2,3,4,5,6-penta-O-sulfato-1-O-(2,3,4,6-tetra-O-sulfato-β-D-glucopyranosyl)-D-mannitol nona potassium salt], the IC50 was 0.1 µM in data set [1] (read-out: Average IC50) and 0.131 µM in data set [1] (setting [2]).

`O=S(=O)(O)OC[C@H](OS(=O)(=O)O)[C@@H](OS(=O)(=O)O)[C@H](O[C@H]1O[C@H](COS(=O)(=O)O)[C@@H](OS(=O)(=O)O)[C@H](OS(=O)(=O)O)[C@H]1OS(=O)(=O)O)[C@@H](COS(=O)(=O)O)OS(=O)(=O)O` (as salt: potassium) [Example 5, 1,2,3,5,6-penta-O-sulfato-4-O-(2,3,4,6-tetra-O-sulfato-α-D-glucopyranosyl)-D-glucitol nona potassium salt]: the melting point was above 220 °C.

Values taken from US8987216B2, “Polysulfated glycosides and salts thereof” (Teva Hungary Pharmaceutical Marketing Private Limited …, priority 2004, dated 2015).
